Test results as given in article PMC12446476 (Nature Communications, 2025).
Values after ≈ are worked out from the molar mass of the structure shown. Read-outs that look alike come from different tables or passages of the source.

System: N. gonorrhoeae
Experiment: MIC determination, Etest
Type: cell-based, Neisseria gonorrhoeae
Conditions: for MIC: Neisseria gonorrhoeae, comparator antibiotics, read-out: Minimum inhibitory concentration
Description: The 2024 WHO N. gonorrhoeae reference strains were used for quality control. Only whole MIC doubling dilutions are reported. Clinical breakpoints or the epidemiological cutoff (ECOFF, to indicate azithromycin resistance) from EUCAST (v14.0, https://www.eucast.org/clinical_breakpoints) were used to classify isolates as antimicrobial susceptible or resistant. […] Two times the standard inoculum defined by CLSI was used to establish consistent growth in untreated control samples for some strains. In vitro time-kill assays were performed according to CLSI guidelines[65] using Columbia Broth (BD Difco) supplemented with 1% IsoVitaleX Enrichment (BD). Viable bacterial counts were generated by plating 10-fold serially diluted samples on GC agar plates containing 1% IsoVitaleX Enrichment (BD).

With `CC[C@H]1OC(=O)[C@H](C)[C@@H](O[C@H]2C[C@@](C)(OC)[C@@H](O)[C@H](C)O2)[C@H](C)[C@@H](O[C@@H]2O[C@H](C)C[C@H](N(C)C)[C@H]2O)[C@](C)(O)C[C@@H](C)CN(C)[C@H](C)[C@@H](O)[C@]1(C)O` [Azithromycin] the MIC (clinical N. gonorrhoeae isolate 50, Sweden 2023) was 0.25 mg/L (≈ 0.334 µM), the MIC (clinical N. gonorrhoeae isolate 51, Sweden 2023) was 0.064 mg/L (≈ 0.0854 µM) and the MIC (clinical N. gonorrhoeae isolate 52, Sweden 2023) was 0.25 mg/L (≈ 0.334 µM). For the same compound, the MIC (clinical N. gonorrhoeae isolate 53, Sweden 2023) was 0.125 mg/L (≈ 0.167 µM), the MIC (clinical N. gonorrhoeae isolate 54, Sweden 2023) was 0.5 mg/L (≈ 0.668 µM) and the MIC (clinical N. gonorrhoeae isolate 55, Sweden 2023) was 0.5 mg/L (≈ 0.668 µM). The MIC (clinical N. gonorrhoeae isolate 56, Sweden 2023) was 0.25 mg/L (≈ 0.334 µM), the MIC (clinical N. gonorrhoeae isolate 57, Sweden 2023) was 0.064 mg/L (≈ 0.0854 µM) and the MIC (clinical N. gonorrhoeae isolate 58, Sweden 2023) was 0.125 mg/L (≈ 0.167 µM). It also gave an MIC (clinical N. gonorrhoeae isolate 59, Sweden 2023) of 0.064 mg/L (≈ 0.0854 µM), an MIC (clinical N. gonorrhoeae isolate 60, Sweden 2023) of 0.5 mg/L (≈ 0.668 µM) and an MIC (clinical N. gonorrhoeae isolate 61, Sweden 2023) of 0.125 mg/L (≈ 0.167 µM). The MIC (clinical N. gonorrhoeae isolate 62, Sweden 2023) was 0.016 mg/L (≈ 0.0214 µM), the MIC (clinical N. gonorrhoeae isolate 63, Sweden 2023) was 0.25 mg/L (≈ 0.334 µM) and the MIC (clinical N. gonorrhoeae isolate 64, Sweden 2023) was 0.5 mg/L (≈ 0.668 µM). It also gave an MIC (clinical N. gonorrhoeae isolate 65, Sweden 2023) of 0.064 mg/L (≈ 0.0854 µM), an MIC (clinical N. gonorrhoeae isolate 66, Sweden 2023) of 0.25 mg/L (≈ 0.334 µM) and an MIC (clinical N. gonorrhoeae isolate 67, Sweden 2023) of 0.25 mg/L (≈ 0.334 µM). The MIC (clinical N. gonorrhoeae isolate 68, Sweden 2023) was 0.064 mg/L (≈ 0.0854 µM), the MIC (clinical N. gonorrhoeae isolate 69, Sweden 2023) was 0.25 mg/L (≈ 0.334 µM) and the MIC (clinical N. gonorrhoeae isolate 70, Sweden 2023) was 0.125 mg/L (≈ 0.167 µM). For the same compound, the MIC (clinical N. gonorrhoeae isolate 71, Sweden 2023) was 2 mg/L (≈ 2.67 µM), the MIC (clinical N. gonorrhoeae isolate 72, Sweden 2023) was 0.125 mg/L (≈ 0.167 µM) and the MIC (clinical N. gonorrhoeae isolate 73, Sweden 2023) was 0.064 mg/L (≈ 0.0854 µM). For the same compound, the MIC (clinical N. gonorrhoeae isolate 74, Sweden 2023) was 0.5 mg/L (≈ 0.668 µM), the MIC (clinical N. gonorrhoeae isolate 75, Sweden 2023) was 0.5 mg/L (≈ 0.668 µM) and the MIC (clinical N. gonorrhoeae isolate 76, Sweden 2023) was 0.125 mg/L (≈ 0.167 µM). For the same compound, the MIC (clinical N. gonorrhoeae isolate 77, Sweden 2023) was 0.064 mg/L (≈ 0.0854 µM), the MIC (clinical N. gonorrhoeae isolate 78, Sweden 2023) was 0.25 mg/L (≈ 0.334 µM) and the MIC (clinical N. gonorrhoeae isolate 79, Sweden 2023) was 0.064 mg/L (≈ 0.0854 µM). For the same compound, the MIC (clinical N. gonorrhoeae isolate 80, Sweden 2023) was 0.125 mg/L (≈ 0.167 µM), the MIC (clinical N. gonorrhoeae isolate 81, Sweden 2023) was 0.25 mg/L (≈ 0.334 µM) and the MIC (clinical N. gonorrhoeae isolate 82, Sweden 2023) was 2 mg/L (≈ 2.67 µM). For the same compound, the MIC (clinical N. gonorrhoeae isolate 83, Sweden 2023) was 0.032 mg/L (≈ 0.0427 µM), the MIC (clinical N. gonorrhoeae isolate 84, Sweden 2023) was 0.5 mg/L (≈ 0.668 µM) and the MIC (clinical N. gonorrhoeae isolate 85, Sweden 2023) was 0.125 mg/L (≈ 0.167 µM). For the same compound, the MIC (clinical N. gonorrhoeae isolate 86, Sweden 2023) was 0.125 mg/L (≈ 0.167 µM), the MIC (clinical N. gonorrhoeae isolate 87, Sweden 2023) was 0.125 mg/L (≈ 0.167 µM) and the MIC (clinical N. gonorrhoeae isolate 88, Sweden 2023) was 0.5 mg/L (≈ 0.668 µM). The MIC (clinical N. gonorrhoeae isolate 89, Sweden 2023) was 0.25 mg/L (≈ 0.334 µM), the MIC (clinical N. gonorrhoeae isolate 90, Sweden 2023) was 0.125 mg/L (≈ 0.167 µM) and the MIC (clinical N. gonorrhoeae isolate 91, Sweden 2023) was 0.032 mg/L (≈ 0.0427 µM). It also gave an MIC (clinical N. gonorrhoeae isolate 92, Sweden 2023) of 0.5 mg/L (≈ 0.668 µM), an MIC (clinical N. gonorrhoeae isolate 93, Sweden 2023) of 0.032 mg/L (≈ 0.0427 µM) and an MIC (clinical N. gonorrhoeae isolate 94, Sweden 2023) of 0.032 mg/L (≈ 0.0427 µM). It also gave an MIC (clinical N. gonorrhoeae isolate 95, Sweden 2023) of 0.5 mg/L (≈ 0.668 µM), an MIC (clinical N. gonorrhoeae isolate 96, Sweden 2023) of 0.25 mg/L (≈ 0.334 µM) and an MIC (clinical N. gonorrhoeae isolate 97, Sweden 2023) of 0.25 mg/L (≈ 0.334 µM). For the same compound, the MIC (clinical N. gonorrhoeae isolate 98, Sweden 2023) was 0.064 mg/L (≈ 0.0854 µM), the MIC (clinical N. gonorrhoeae isolate 99, Sweden 2023) was 0.064 mg/L (≈ 0.0854 µM) and the MIC (clinical N. gonorrhoeae isolate 100, Sweden 2023) was 0.064 mg/L (≈ 0.0854 µM). For the same compound, the “AMR phenotype (susceptibility category, EUCAST)” value (shortened to “AMR phenotype”) (WHO F) was “S”, the “AMR phenotype” value (WHO H) was “S” and the “AMR phenotype” value (WHO K) was “S”. For the same compound, the “AMR phenotype” value (WHO L) was “S”, the “AMR phenotype” value (WHO M) was “S” and the “AMR phenotype” value (WHO O) was “S”. The “AMR phenotype” value (WHO P) was “R”, the “AMR phenotype” value (WHO Q) was “R” and the “AMR phenotype” value (WHO R) was “S”. For the same compound, the “AMR phenotype” value (WHO S2) was “R”, the “AMR phenotype” value (WHO U) was “R” and the “AMR phenotype” value (WHO V) was “R”. For the same compound, the “AMR phenotype” value (WHO X) was “S”, the “AMR phenotype” value (WHO Y) was “S” and the “AMR phenotype” value (WHO Z) was “S”.
